From ChEMBL document CHEMBL6134907, “Synthesis of 5,9- and 5,8-Diaminoalkoxy Substituted Benzophenanthridinone Analogues as Tyrosyl-DNA Phosphodiesterase 1 Inhibitors and Their Radiosensitizing Activity” (J Med Chem, 2025)
The source made the active and inactive calls. The rule behind the calls is not given here.

Columns and labels:
[1] = target: T1, Tyrosyl-DNA phosphodiesterase 1 (Homo sapiens, UniProt Q9NUW8); assay: Inhibition of TDP1 in human SgTDP1-HCT-116 cells (TDP1 knockout) at 1.11 mM; assay type: cell-based
T1 sequence (Q9NUW8 whole entry): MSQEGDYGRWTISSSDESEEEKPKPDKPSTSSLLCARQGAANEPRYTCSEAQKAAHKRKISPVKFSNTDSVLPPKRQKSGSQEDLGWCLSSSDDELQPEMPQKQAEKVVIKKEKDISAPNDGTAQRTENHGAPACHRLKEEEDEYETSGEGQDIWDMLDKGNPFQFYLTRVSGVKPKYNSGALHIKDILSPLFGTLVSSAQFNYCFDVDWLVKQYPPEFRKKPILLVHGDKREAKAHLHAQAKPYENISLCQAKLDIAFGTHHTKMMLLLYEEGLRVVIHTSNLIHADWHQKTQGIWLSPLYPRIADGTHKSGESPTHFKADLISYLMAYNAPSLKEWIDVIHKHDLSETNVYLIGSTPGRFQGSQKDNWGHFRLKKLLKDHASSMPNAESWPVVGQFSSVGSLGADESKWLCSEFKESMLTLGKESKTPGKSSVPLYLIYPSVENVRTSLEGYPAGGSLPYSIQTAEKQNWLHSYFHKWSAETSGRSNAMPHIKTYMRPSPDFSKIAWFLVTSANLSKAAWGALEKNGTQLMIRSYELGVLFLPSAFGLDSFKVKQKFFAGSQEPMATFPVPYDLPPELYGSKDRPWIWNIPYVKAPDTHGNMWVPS

[2] = Toxicity in BALB/c mouse xenografted with human HCT-116 cells assessed as change in body weight at 1 mg/kg, ip every day for 14 days; assay type: organism-based; details: in vivo, 336 h, time 14 day
[3] = Tmax in male Sprague-Dawley rat at 5 mg/kg, IG measured up to 24 hrs by LCMS-MS analysis; assay type: ADME, organism-based; details: in vivo, po
[4] = Induction of 4GY ionizing radiation (IR) induced cell cycle arrest in human HCT-116 cells assessed as accumulation of cells at S phase at 10 uM measured after 24 hrs by Propidium iodide (PI) staining based assay (reference value: 11.48%); assay type: functional
HCT-116 [5] = assay: Effect on Ku70/80 expression in wild type human HCT-116 cells assessed as change in mRNA level at 5 to 10 uM radiated with 4 GY ionizing radiation (IR) measured after 24 hrs by qRT-PCR analysis; assay type: functional, cell-based; details: dose 5-10 µM
[6] = Toxicity in BALB/c mouse xenografted with human HCT-116 cells assessed as change in liver weight at 1 to 10 mg/kg, ip every day for 14 days radiated for every 2 days once; assay type: organism-based; details: in vivo, 336 h, dose 1-10 mg/kg, time 14 day
HCT-116 [7] = assay: In vivo radiosensitizing activity in human HCT-116 cells xenografted in BALB/c mouse assessed as sensitization of 1 GY ionizing radiation induced tumor growth inhibition at 1 mg/kg, ip every day for 14 days radiated for every 2 days once; assay type: functional, organism-based; details: time 14.0 day
HCT-116 [8] = assay: Effect on Ku70/80 expression in wild type human HCT-116 cells assessed as change in protein level at 5 to 10 uM measured after 24 hrs by Western blot analysis; assay type: functional, cell-based; details: dose 5-10 µM
HCT-116 [9] = assay: Reduction of XRCC4 expression in wild type human HCT-116 cells assessed as reduction in protein level at 5 to 10 uM radiated with 4 GY ionizing radiation (IR) measured after 24 hrs by Western blot analysis; assay type: functional, cell-based; details: dose 5-10 µM
HCT-116 [10] = assay: Synergistic cytotoxicity against human SgTDP1-HCT-116 cells (TDP1 knockout) assessed as combination index at 0.5 uM incubated for 48 hrs in presence of 2GY ionizing radiation; assay type: functional
[11] = Cmax in male Sprague-Dawley rat at 1 mg/kg, iv measured up to 24 hrs by LCMS-MS analysis; assay type: ADME, organism-based; details: in vivo
HCT-116 [12] = assay: Induction of cell cycle arrest in human HCT-116 cells assessed as accumulation of cells at G0/G1 phase at 10 uM measured after 24 hrs by Propidium iodide (PI) staining based assay (reference value: 69.35%); assay type: functional
[13] = Induction of 4GY ionizing radiation (IR) induced cell cycle arrest in human HCT-116 cells assessed as accumulation of cells at G2/M phase at 10 uM measured after 24 hrs by Propidium iodide (PI) staining based assay (reference value: 20.51%); assay type: functional
[14] = AUClast in male Sprague-Dawley rat at 5 mg/kg, IG measured up to 24 hrs by LCMS-MS analysis; assay type: ADME, organism-based; details: in vivo, po
[15] = MRT infinity in male Sprague-Dawley rat at 1 mg/kg, iv measured up to 24 hrs by LCMS-MS analysis; assay type: ADME, organism-based; details: in vivo
HCT-116 [16] = assay: Induction of 4GY ionizing radiation (IR) induced apoptosis in human HCT-116 cells assessed as late apoptotic cells at 5 uM measured after 24 hrs by FITC Annexin V/PI apoptosis detection assay (reference value: 14.32%); assay type: functional
[17] = Toxicity in BALB/c mouse xenografted with human HCT-116 cells assessed as change in heart weight at 1 to 10 mg/kg, ip every day for 14 days; assay type: organism-based; details: in vivo, 336 h, dose 1-10 mg/kg, time 14 day
[18] = Induction of 4GY ionizing radiation (IR) induced cell cycle arrest in human HCT-116 cells assessed as accumulation of cells at S phase at 5 uM measured after 24 hrs by Propidium iodide (PI) staining based assay (reference value: 11.48%); assay type: functional
[19] = Tmax in male Sprague-Dawley rat at 1 mg/kg, iv measured up to 24 hrs by LCMS-MS analysis; assay type: ADME, organism-based; details: in vivo
[20] = Toxicity in BALB/c mouse xenografted with human HCT-116 cells assessed as change in kidney weight at 1 to 10 mg/kg, ip every day for 14 days; assay type: organism-based; details: in vivo, 336 h, dose 1-10 mg/kg, time 14 day
[21] = target: T1, Tyrosyl-DNA phosphodiesterase 1; assay: Binding affinity to TDP1 in human HCT-116 cells assessed as increase in thermal stability by Cellular Thermal Shift Assay (CETSA); assay type: cell-based
HCT-116 [22] = assay: Suppression of ionizing radiation (IR) induced DNA damage in human wild type HCT-116 cells assessed as HR repair activity by measuring GFP positive cells at 1 uM measured after 24 hrs by flow cytometry; assay type: functional, cell-based
[23] = Toxicity in BALB/c mouse xenografted with human HCT-116 cells assessed as change in kidney weight at 1 to 10 mg/kg, ip every day for 14 days radiated for every 2 days once; assay type: organism-based; details: in vivo, 336 h, dose 1-10 mg/kg, time 14 day
[24] = test system: Tyrosyl-DNA phosphodiesterase 1/Deoxyribonucleic acid; assay: Stabilization of TDP1/DNA complex in human HCT-116 cells at 100 uM by Cellular Thermal Shift Assay (CETSA); assay type: cell-based
HCT-116 [25] = assay: Induction of apoptosis in human HCT-116 cells assessed as viable cells at 5 uM measured after 24 hrs by FITC Annexin V/PI apoptosis detection assay (reference value: 99.71%); assay type: functional; details: read-out: Activity
HCT-116 [26] = assay: Induction of ROS generation in human HCT-116 cells assessed as intracellular ROS level at 10 uM under 4GY ionizing radiation (IR) measured after 20 mins by flow cytometry (reference value: 7.2%); assay type: functional
[27] = AUClast in male Sprague-Dawley rat at 1 mg/kg, iv measured up to 24 hrs by LCMS-MS analysis; assay type: ADME, organism-based; details: in vivo
[28] = Toxicity in human NCM460 cells assessed as 2GY ionizing radiation radiosensitisation mediated cell killing; assay type: cell-based
HCT-116 [29] = assay: Induction of ionizing radiation (IR) induced gamma-H2AX foci in human HCT-116 cells at 5 uM measured after 3 hrs by immunofluorescence assay; assay type: functional, cell-based
[30] = Toxicity in BALB/c mouse xenografted with human HCT-116 cells assessed as change in spleen weight at 1 to 10 mg/kg, ip every day for 14 days; assay type: organism-based; details: in vivo, 336 h, dose 1-10 mg/kg, time 14 day
HCT-116 [31] = assay: In vivo radiosensitizing activity in human HCT-116 cells xenografted in BALB/c mouse assessed as sensitization of 1 GY ionizing radiation induced reduction in tumor weight at 10 mg/kg, ip every day for 14 days radiated for every 2 days once (reference value: 35%); assay type: functional; parameters: scale not given: the % may be the effect or the level left; details: time 14 day
HCT-116 [32] = assay: Induction of apoptosis in human HCT-116 cells assessed as late apoptotic cells at 10 uM measured after 24 hrs by FITC Annexin V/PI apoptosis detection assay (reference value: 0%); assay type: functional
[33] = Toxicity in BALB/c mouse xenografted with human HCT-116 cells assessed as change in body weight at 10 mg/kg, ip every day for 14 days; assay type: organism-based; details: in vivo, 336 h, time 14 day
HCT-116 [34] = assay: Induction of apoptosis in human HCT-116 cells assessed as induction of 4GY ionizing radiation (IR) induced cleaved Caspase-9 at 5 uM measured after 24 hrs by Western blot analysis; assay type: functional, cell-based

Compound: COc1cc2c(=O)n(CCN(C)C)c3c4cc5c(cc4ccc3c2cc1OCCN1CCOCC1)OCO5
- inhibition [1]: inactive
- Activity [2]: Non-toxic
- Tmax [3]: 4 h
- Activity [4]: 12.88%
- Activity (HCT-116 [5]): inactive
- Activity [6]: Non-toxic
- TGI (HCT-116 [7]): Active
- Activity (HCT-116 [8]): inactive
- Activity (HCT-116 [9]): Active
- CI (HCT-116 [10]): 0.94
- Cmax [11]: 221 ng/mL
- Activity (HCT-116 [12]): 63.63%
- Activity [13]: 68.1%
- AUC(0-t) at 24 h [14]: 779 ng·h/mL
- MRT inf [15]: 3.33 h
- Activity (HCT-116 [16]): 18.62%
- Activity [17]: Non-toxic
- Activity [18]: 11.88%
- Tmax [19]: 4.98 min
- Activity [20]: Non-toxic
- Activity [21]: Active; Thermal Melting Curve Of Tdp1 Protein Shifted Left
- Activity (HCT-116 [22]): inactive
- Activity [23]: Non-toxic
- Activity [24]: Active; Coincubation With Ionizing Radiation Showed Greater Complex Formation
- viability at 5 µM (HCT-116 [25]): 78.2%
- Activity (HCT-116 [26]): 27.6%
- AUC(0-t) at 24 h [27]: 247 ng·h/mL
- Activity [28]: Non-toxic
- Activity (HCT-116 [29]): Active
- Activity [30]: Non-toxic
- Activity (HCT-116 [31]): 77%
- Activity (HCT-116 [32]): 13.67%
- Activity [33]: Non-toxic
- Activity (HCT-116 [34]): Active
